The source of these data is patent publication US6593480B2 (Abbott Laboratories, priority 1999, dated 2003).

In series [1] the target is T1, Human glucocorticoid receptors (Homo sapiens, UniProt P04150).
T1 construct: made in house; host or cells: Sf9 insect cells, recombinant baculovirus (BAC-TO-BAC)
T1 sequence (P04150 1-777): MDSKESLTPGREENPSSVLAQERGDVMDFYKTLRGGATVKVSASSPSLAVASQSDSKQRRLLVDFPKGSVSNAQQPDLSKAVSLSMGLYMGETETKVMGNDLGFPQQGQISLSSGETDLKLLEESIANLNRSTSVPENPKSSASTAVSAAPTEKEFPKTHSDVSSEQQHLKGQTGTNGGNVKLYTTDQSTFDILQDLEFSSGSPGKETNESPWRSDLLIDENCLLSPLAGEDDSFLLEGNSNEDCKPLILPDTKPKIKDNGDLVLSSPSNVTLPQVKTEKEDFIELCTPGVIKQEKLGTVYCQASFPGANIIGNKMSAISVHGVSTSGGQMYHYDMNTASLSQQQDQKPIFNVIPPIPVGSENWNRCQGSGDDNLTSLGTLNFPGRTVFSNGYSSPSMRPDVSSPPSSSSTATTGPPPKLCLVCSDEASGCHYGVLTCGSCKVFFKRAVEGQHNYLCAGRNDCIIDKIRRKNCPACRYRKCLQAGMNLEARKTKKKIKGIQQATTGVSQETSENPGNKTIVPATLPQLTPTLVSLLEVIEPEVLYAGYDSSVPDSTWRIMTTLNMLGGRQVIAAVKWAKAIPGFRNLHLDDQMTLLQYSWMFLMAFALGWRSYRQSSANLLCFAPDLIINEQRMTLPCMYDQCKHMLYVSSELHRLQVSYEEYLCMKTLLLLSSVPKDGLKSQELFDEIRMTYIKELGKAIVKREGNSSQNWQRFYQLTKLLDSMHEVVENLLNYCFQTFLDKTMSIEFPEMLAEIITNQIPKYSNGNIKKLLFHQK
Briefly: Radioligand filter binding assay, displacement of 3(H)-dexamethasone from human glucocorticoid receptor cytosol. Conditions: 1.7 μM test compound, inhibition of 3(H)-dex binding to hGR; for inhibition at 1.7 µM: read-out: GR BINDING (% Inhibition @ 1.7 μM).
Experimental: Dexamethasone hereafter referred to as dex was purchased from SIGMA. […] Human glucocorticoid receptors were extracted from Sf9 cells infected with a recombinant baculovirus transfer vector containing the cloned hGR genes. […] The recombinant baculovi, uses expressing hGR were amplified and used to infect Sf9 cells. Infected cells were harvested 48 hrs post infection. […] The concentration of hGR in the extract was measured as specific ^3(H)-dex binding with the G25-assay as described in J. Steroid Biochem. Molec. […] The extract was aliquoted and stored at −70° C.
The filter binding assay: Dilution series of the test compounds and dex as reference were made from 10 mM (1 mM dex) stock solutions in DMSO. 10 μl of the dilutions was added in duplicates to the wells. The cell extracts were diluted 10 fold in EPMo +MTG buffer (1 mM EDTA, HPO4 20 mM (pH8), 6 mM MTG). […] 110 μl of the diluted ^3(H)-dex were added to the wells. The final concentration of hGR in the experiment was estimated to 1 nM. All preparations were made in ambient temperature (20-25° C.) on ice and with +4° C. temperated buffers. The plates were incubated over night at +4° C. (15-20hrs).
The incubation was stopped by filtration through GF/B filter on the Tomtec Cellharvester. The filtration on the Tomtec Cellharvester was programmed as follows: 1) Preparation before filtration with EP buffer (1 mM EDTA 20 mM HPO4 (pH8)) 2×(Wash/Asp 0.6 sec., Asp 0.5 sec.); 2) Prewet of GF/B filter with EP+PEI buffer (EP buffer, 0.3% Polyesthylenimine) (Asp 0.8 sec.). 3) Filtration/harvesting of the 96-well incubation plate 3×(Wash/Asp 0.6 sec., Asp 0.5 sec.). The GF/B filter was dried for at least 1 hr at 65° C. A MeltiLex scintillation wax was melted onto the filter with the Microsealer. The filter was placed in a samplebag, which was thereafter trimmed with scissors to fit the filter cassette. The cassette were placed in the Microbeta and measured for 1 min/position, returning ccpm (conrected counts per minute).
The Microbeta-instrument generates the mean cpm (counts per minute) value/minute and corrects for individual variations between the detectors thus generating corrected cpm values.

For series [2], the target named is T2, progesterone receptor (PR) (Homo sapiens, UniProt P06401).
T2 sequence (P06401 1-933): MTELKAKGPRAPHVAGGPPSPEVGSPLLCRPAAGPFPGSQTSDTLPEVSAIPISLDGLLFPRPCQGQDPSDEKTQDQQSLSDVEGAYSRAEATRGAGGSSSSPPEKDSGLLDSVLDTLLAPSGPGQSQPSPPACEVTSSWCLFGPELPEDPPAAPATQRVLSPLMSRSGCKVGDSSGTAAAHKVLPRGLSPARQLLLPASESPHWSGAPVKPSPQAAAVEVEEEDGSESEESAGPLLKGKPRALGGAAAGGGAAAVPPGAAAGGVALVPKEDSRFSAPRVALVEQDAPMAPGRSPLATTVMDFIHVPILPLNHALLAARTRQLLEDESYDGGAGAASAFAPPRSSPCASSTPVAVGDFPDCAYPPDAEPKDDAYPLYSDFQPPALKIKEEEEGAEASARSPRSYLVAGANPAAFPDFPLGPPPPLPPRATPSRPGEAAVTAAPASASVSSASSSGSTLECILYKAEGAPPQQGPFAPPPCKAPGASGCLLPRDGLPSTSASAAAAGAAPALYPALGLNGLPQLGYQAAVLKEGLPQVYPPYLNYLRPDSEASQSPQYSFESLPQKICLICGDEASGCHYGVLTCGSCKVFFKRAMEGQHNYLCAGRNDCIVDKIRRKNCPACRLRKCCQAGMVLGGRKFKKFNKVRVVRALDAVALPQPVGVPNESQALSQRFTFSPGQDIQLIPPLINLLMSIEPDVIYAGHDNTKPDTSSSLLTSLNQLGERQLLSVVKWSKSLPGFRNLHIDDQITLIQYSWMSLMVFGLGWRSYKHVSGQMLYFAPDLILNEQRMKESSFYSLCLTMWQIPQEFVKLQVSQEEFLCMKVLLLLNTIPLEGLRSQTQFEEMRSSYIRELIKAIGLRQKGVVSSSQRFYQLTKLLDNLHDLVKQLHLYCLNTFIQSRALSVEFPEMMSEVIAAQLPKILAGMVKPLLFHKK
As to the kind of experiment: Radioligand binding assay with progesterone receptor cytosol (similar protocol). From the text:
Methods for Radioligand Binding Studies with Human Glucocorticoid and Progesterone Receptor Cytosol
A similar protocol was employed to measure affinity of the compounds of the present invention for progesterone receptor (PR).

For series [3], the system named is obese diabetic db/db transgenic mice. The following applies: cited from earlier work.

Some results are limits rather than exact numbers.

As for “(1-methoxy-6-(4-chlorobutyl)-6H-dibenzo(b,d)pyran-8-yl)methanesulfonamide [Example 57]”, the “GR BINDING (% Inhibition @ 1.7 μM)” value in series [1] turned out to be 94.9%. Also, the IC50 – broadly, the concentration that gives 50% inhibition – in series [2] was 1090 nM.
In the case of `COCCCCOc1cccc(C2Oc3cccc(OC)c3-c3ccc(NS(C)(=O)=O)cc32)c1` (stereo not shown) [Example 95, N-{1-methoxy-6-[3-(4-methoxybutoxy)phenyl]-6H-benzo[c]chromen-8-yl}methanesulfonamide], the inhibition – broadly, the change of the read-out against control, counted positive when it falls – at 1.7 µM in series [1] amounted to 90%. For the same molecule, in series [2], the IC50 was greater than 1000 nM.
Consider “(1-methoxy-6-(3-carboethoxyphenyl)-6H-dibenzo(b,d)pyran-8-yl)methanesulfonamide [Example 51]”, for which, in series [1], the “GR BINDING (% Inhibition @ 1.7 μM)” value is 94.0%. The IC50 in series [2] was greater than 10000 nM.
For “(1-ethynyl-6-phenyl-6H-dibenzo(b,d)pyran-8-yl)methanesulfonamide [Example 36]”, in that order: 95.0% and 2240 nM.
With `COc1cccc2c1-c1ccc(NS(C)(=O)=O)cc1[C@H](c1ccccc1)O2` [Example 24, 6S-(1-methoxy-6-phenyl-6H-dibenzo(b,d)pyran-8-yl)methanesulfonamide], the inhibition at 1.7 µM in series [1] is 88.9%. The molecule further gave an IC50 in series [2] of 800 nM.
“(1-methoxy-6-(5-chloropent-1-yl)-6H-dibenzo(b,d)pyran-8-yl)methanesulfonamide [Example 75]”: the “GR BINDING (% Inhibition @ 1.7 μM)” value in series [1] was 90.1%. The IC50 in series [2] is 1850 nM.
`COc1cccc2c1-c1ccc(NS(C)(=O)=O)cc1C(CCCCCCC#N)O2` (stereo not shown) [Example 48]: the inhibition at 1.7 µM in series [1] was found to be 90.8%. The same molecule displayed an IC50 in series [2] greater than 10000 nM.
As to `CC#C[C@]1(O)CC[C@H]2[C@@H]3CCC4=CC(=O)CCC4=C3[C@@H](c3ccc(N(C)C)cc3)C[C@@]21C` [mifepristone], in series [3] (liver, db/db mice), the “mRNA levels of PEPCK and glucose-6-phosphate in the liver” value is given as “reduces”. Further, the “reduction of plasma glucose levels” value in series [3] (obese diabetic db/db transgenic mice) was 50%.
In the case of “(1-difluoromethoxy-6-(4-(N-allyl-N-methylamino)phenyl)-6H-dibenzo(b,d)pyran-8-yl)-methanesulfonamide [Example 30]”, the “GR BINDING (% Inhibition @ 1.7 μM)” value in series [1] is 85.6%. In addition, in series [2], the IC50 was 1280 nM.
For the molecule “(1-methoxy-6-(3,4-dichlorophenyl)-6H-dibenzo(b,d)pyran-8-yl)methanesulfonamide [Example 63]”, the “GR BINDING (% Inhibition @ 1.7 μM)” value in series [1] was found to be 98.5%. For the same molecule, in series [2], the IC50 was 1200 nM.
For “(1-methoxy-6-(5-bromothien-2-yl)-6H-dibenzo(b,d)pyran-8-yl)methanesulfonamide [Example 62]”, in that order: 94.5% and 172 nM.
On to “(1-methoxy-6-allyl-6H-dibenzo(b,d)pyran-8-yl)methanesulfonamide [Example 53]”, for which the “GR BINDING (% Inhibition @ 1.7 μM)” value in series [1] is reported as 92.9%. In addition, the IC50 in series [2] is 1420 nM.
The corresponding values for “(1-methoxy-6-(3-methoxyphenyl)-6H-dibenzo(b,d)pyran-8-yl)methanesulfonamide [Example 59]” are 94.7% and 2110 nM.
With `COc1cccc2c1-c1ccc(NS(C)(=O)=O)c(C)c1C(c1cccc(C(F)(F)F)c1)O2` (stereo not shown) [Example 1, (1-methoxy-6-(3-trifluoromethyl)phenyl-7-methyl-6H-dibenzo(b,d)pyran-8-yl)methanesulfonamide], the melting point (usually the temperature, or range, at which the solid turns liquid) lay within 217 to 218 °C. Moreover, the inhibition at 1.7 µM in series [1] came out at 82.1%. Also, the IC50 in series [2] is 5630 nM.
In the case of “(1-cyano-6-phenyl-6H-dibenzo(b,d)pyran-8-yl)methanesulfonamide [Example 43]”, in series [1], the “GR BINDING (% Inhibition @ 1.7 μM)” value is given as 90.6%. In addition, the IC50 in series [2] turned out to be 730 nM.
In the case of “(1-methoxy-2-hydroxy-6-phenyl-6H-dibenzo(b,d)pyran-8-yl)methanesulfonamide [Example 65]”, in series [1], the “GR BINDING (% Inhibition @ 1.7 μM)” value worked out at 94.9%. In addition, in series [2], the IC50 came to 2840 nM.
With `COc1cccc2c1-c1ccc(NS(C)(=O)=O)c(Br)c1C(c1ccccc1)O2` (stereo not shown) [Example 2], in series [1], the inhibition at 1.7 µM came out at 67.2%. In addition, in series [2], the IC50 is greater than 10000 nM.
The corresponding values for `COc1cccc2c1-c1ccc(NS(C)(=O)=O)cc1C(c1cccc(Oc3ccccc3)c1)O2` (stereo not shown) [Example 139, N-[1-methoxy-6-(3-phenoxyphenyl)-6H-benzo[c]chromen-8-yl]methanesulfonamide] are 90.6% and greater than 1000 nM.
For `COc1cccc2c1-c1ccc(NS(C)(=O)=O)cc1C(c1ccc(C#N)cc1)O2` (stereo not shown) [Example 47], in that order: 94.5% and 3480 nM.
As to “(1-methoxy-6-(3-chloroprop-2-en-1-yl)-6H-dibenzo(b,d)pyran-8-yl)methanesulfonamide [Example 73]”, the “GR BINDING (% Inhibition @ 1.7 μM)” value in series [1] is on record as 88.3%. Moreover, the IC50 in series [2] is greater than 1000 nM.
On to “(1-methoxy-6-(5-chlorothien-2-yl)-6H-dibenzo(b,d)pyran-8-yl)methanesulfonamide [Example 58]”, for which the “GR BINDING (% Inhibition @ 1.7 μM)” value in series [1] came out at 94.6%. In series [2], this molecule showed an IC50 of 524 nM.
The corresponding values for “(1-methoxy-6-(2-thienyl)-6H-dibenzo(b,d)pyran-8-yl)methanesulfonamide [Example 54]” are 94.1% and 450 nM.
The corresponding values for “(1-methoxy-6-(3-fluorophenyl)-6H-dibenzo(b,d)pyran-8-yl)methanesulfonamide [Example 77]” are 90.4% and 480 nM.
Turning to `COCCCc1ccc(C2Oc3cccc(OC)c3-c3ccc(NS(C)(=O)=O)cc32)s1` (stereo not shown) [Example 138, N-{1-methoxy-6-[5-(3-methoxypropyl)-2-thienyl]-6H-benzo[c]chromen-8-yl}methanesulfonamide], in series [1], the inhibition at 1.7 µM stood at 92.5%. The molecule also yielded an IC50 in series [2] of 280 nM.
